According to patent US11285156B2, “Substituted piperazines as KRAS G12C inhibitors” (Amgen Inc., priority 2018, dated 2022):
Read-outs that look alike come from different tables or passages of the source.

Experiments:
[1] = target: GDP-bound KRAS protein (aa 1-169), containing both G12C and C118A amino acid substitutions (Homo sapiens (Human), UniProt P01116, C118A/G12C); assay: Coupled nucleotide exchange assay (SOS-mediated nucleotide exchange, AlphaScreen); format: biochemical; settings: 5 min compound pre-incubation; for IC50: read-out: Coupled exchange IC50 (5 min; μM)
Chain of GDP-bound KRAS protein (aa 1-169), containing both G12C and C118A amino acid substitutions (P01116 other isoform, or with tags, fused parts or gaps G12C/C118A): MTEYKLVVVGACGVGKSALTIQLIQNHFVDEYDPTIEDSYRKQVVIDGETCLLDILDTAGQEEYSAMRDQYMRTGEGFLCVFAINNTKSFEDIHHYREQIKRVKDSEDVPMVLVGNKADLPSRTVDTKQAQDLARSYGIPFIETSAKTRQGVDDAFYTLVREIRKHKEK

[2] = system: Phosphorylation of ERK1/2 in MIA PaCa-2 cells; assay: Phospho-ERK1/2 MSD assay in MIA PaCa-2 cells; format: cell-based; settings: read-out: p-ERK IC50 (2 h, MiaPaCa-2; μM), 2 h compound treatment, MIA PaCa-2 cells, EGF stimulated
Method in brief: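 Phospho-ERK1/2 measured by MSD electrochemiluminescence kit in RIPA lysates of MIA PaCa-2 cells. Cells were treated with compound titrations for 2 or 4 h at 37 °C, 5% CO2, followed by a 10 min pulse of 10 ng/mL EGF.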

[3] = system: Phosphorylation of ERK1/2 in A549 cells; assay: Phospho-ERK1/2 MSD assay in A549 cells; format: cell-based; settings: read-out: p-ERK IC50 (2 h, A549; μM), 2 h compound treatment, A549 cells, EGF stimulated
Method in brief: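 Phospho-ERK1/2 was quantified by MSD immunoassay in RIPA lysates of MIA PaCa-2 or A549 cells. Before lysis, cells received 10 ng/mL EGF for 10 min after 2 or 4 h exposure at 37° C. to a compound concentration series.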

IC50 ([2]; Homo sapiens, MIA PaCa-2, 2 h) [µM]	IC50 ([3]; Homo sapiens, A549, 2 h) [µM]	Coupled exchange IC50 (5 min; μM) [1] [µM]	Structure (SMILES)	IC50 [1] [µM]	IC50 [2] [µM]	IC50 [3] [µM]
–	–	–	C=CC(=O)N1CCN(c2nc(=O)n(-c3c(C(C)C)ccnc3C(C)C)c3nc(-c4ccccc4C)c(Cl)cc23)[C@@H](C)C1 (single isomer, unassigned) [Example 125-10]	0.032	0.068	> 7.5
–	–	–	C=CC(=O)N1CCN(c2nc(=O)n(CC(C)(C)C)c3nc(-c4ccccc4F)c(Cl)cc23)CC1CC#N (single isomer, unassigned) [Example 145-1-1, 2-[4-[6-Chloro-1-(2,2-dimethylpropyl)-7-(2-fluorophenyl)-2-oxo-pyrido[2,3-d]pyrimidin-4-yl]-1-prop-2-enoyl-piperazin-2-yl]acetonitrile]	1.71	1.3	5.53
–	–	–	C=CC(=O)N1CCN(c2nc(=O)n(CC(C)(C)C)c3nc(-c4ccccc4F)c(Cl)cc23)CC1CC#N (single isomer, unassigned) [Example 145-1-2, 2-[4-[6-Chloro-1-(2,2-dimethylpropyl)-7-(2-fluorophenyl)-2-oxo-pyrido[2,3-d]pyrimidin-4-yl]-1-prop-2-enoyl-piperazin-2-yl]acetonitrile]	1.15	1.05	3.94
–	–	–	C=CC(=O)N1C[C@H](C)N(c2nc(=O)n3c4nc(c(Cl)cc24)-c2ccccc2C/C=C\Cc2ccccc2-3)C[C@H]1C (single isomer, unassigned) [Example 146-3-4]	7.96	1.26	> 7.5
0.118	> 7.5	0.049	C=CC(=O)N1C[C@H](C)N(c2nc(=O)n(-c3c(C)cc(CC)nc3C(C)C)c3nc(-c4ccccc4F)c(Cl)cc23)C[C@H]1C (single isomer, unassigned) [Example 166-1]	–	–	–
0.079	> 7.5	0.079	C=CC(=O)N1C[C@H](C)N(c2nc(=O)n(-c3c(C)nc(Cl)nc3C(C)C)c3nc(-c4ccccc4F)c(Cl)cc23)C[C@H]1C (single isomer, unassigned) [Example 191-2]	–	–	–
0.097	> 7.5	0.048	C=CC(=O)N1C[C@H](C)N(c2nc(=O)n(-c3c(C)nc(N(C)C)nc3C(C)C)c3nc(-c4ccccc4F)c(Cl)cc23)C[C@H]1C (single isomer, unassigned) [Example 196]	–	–	–
0.091	> 7.5	0.01	C=CC(=O)N1C[C@H](C)N(c2nc(=O)n(-c3c(C)nc(Br)nc3C(C)C)c3nc(-c4ccccc4F)c(Cl)cc23)C[C@H]1C (single isomer, unassigned) [Example 197-2]	–	–	–
0.136	5.96	0.075	C=CC(=O)N1C[C@H](C)N(c2nc(=O)n(-c3c(C)nc(C4CC4)nc3C(C)C)c3nc(-c4ccccc4F)c(Cl)cc23)C[C@H]1C (single isomer, unassigned) [Example 198]	–	–	–
0.087	> 7.5	0.132	C=CC(=O)N1C[C@H](C)N(c2nc(=O)n(-c3c(C)nc(CC)nc3C(C)C)c3nc(-c4ccccc4F)c(Cl)cc23)C[C@H]1C (single isomer, unassigned) [Example 199]	–	–	–
0.094	> 7.5	0.03	C=CC(=O)N1C[C@H](C)N(c2nc(=O)n(-c3c(C)nc(F)nc3C(C)C)c3nc(-c4ccccc4F)c(Cl)cc23)C[C@H]1C (single isomer, unassigned) [Example 200]	–	–	–
0.205	5.05	0.075	C=CC(=O)N1C[C@H](C)N(c2nc(=O)n(-c3c(C)nc(C(=C)C)nc3C(C)C)c3nc(-c4ccccc4F)c(Cl)cc23)C[C@H]1C (single isomer, unassigned) [Example 201]	–	–	–
0.075	> 7.5	0.071	C=CC(=O)N1C[C@H](C)N(c2nc(=O)n(-c3c(C)nc(C=C)nc3C(C)C)c3nc(-c4ccccc4F)c(Cl)cc23)C[C@H]1C (single isomer, unassigned) [Example 202]	–	–	–
0.243	> 7.5	0.223	C=CC(=O)N1C[C@H](C)N(c2nc(=O)n(-c3c(C)nc(C(C)C)nc3C(C)C)c3nc(-c4ccccc4F)c(Cl)cc23)C[C@H]1C (single isomer, unassigned) [Example 203]	–	–	–
0.091	3.01	0.066	C#Cc1nc(C)c(-n2c(=O)nc(N3C[C@@H](C)N(C(=O)C=C)C[C@@H]3C)c3cc(Cl)c(-c4ccccc4F)nc32)c(C(C)C)n1 (single isomer, unassigned) [Example 204]	–	–	–
–	–	–	C=CC(=O)N1C[C@H](C)N(c2nc(=O)n(-c3c(C(C)C)cccc3S(C)(=O)=O)c3nc(-c4ccccc4F)c(Cl)cc23)C[C@H]1C (single isomer, unassigned) [Example 208-2]	0.117	0.106	> 7.5
0.116	> 7.5	0.088	C=CC(=O)N1C[C@H](C)N(c2nc(=O)n(-c3c(C(C)C)cccc3[S+](C)[O-])c3nc(-c4ccccc4F)c(Cl)cc23)C[C@H]1C (single isomer, unassigned) [Example 209-1]	–	–	–
–	–	–	C=CC(=O)N1C[C@H](C)N(c2nc(=O)n(-c3c(C)ccnc3C(C)C)c3nc(C4CC4(C)C)c(Cl)cc23)C[C@H]1C (stereo partly drawn) [93-2]	0.305	0.558	> 7.5

Structure (SMILES)	IC50 ([2]; Homo sapiens, MIA PaCa-2, 2 h) [µM]	IC50 ([3]; Homo sapiens, A549, 2 h) [µM]	Coupled exchange IC50 (5 min; μM) [1] [µM]	IC50 [1] [µM]	IC50 [2] [µM]	IC50 [3] [µM]
C=CC(=O)N1C[C@H](C)N(c2nc(=O)n3c4nc(c(Cl)cc24)-c2ccccc2C/C=C\Cc2cccc(C(C)C)c2-3)C[C@H]1C (single isomer, unassigned) [Example 146-2-2]	0.096	5.48	–	0.061	–	–
C=CC(=O)N1C[C@H](C)N(c2nc(=O)n3c4nc(c(Cl)cc24)-c2ccccc2C/C=C/Cc2ccccc2-3)C[C@H]1C (single isomer, unassigned) [Example 146-3-2]	1.05	> 7.5	–	4.4	–	–
C=CC(=O)N1CCN(c2nc(=O)n(-c3c(C)cc(N)nc3C(C)C)c3nc(-c4ccccc4F)c(Cl)cc23)[C@@H](C)C1 (single isomer, unassigned) [Example 183-2]	0.043	> 7.5	–	0.058	–	–
C=CC(=O)N1C[C@H](C)N(c2nc(=O)n(-c3c(N)ncnc3C(C)C)c3nc(-c4ccccc4F)c(Cl)cc23)C[C@H]1C (single isomer, unassigned) [Example 189-1]	0.072	> 7.5	0.036	–	–	–
C=CC(=O)N1C[C@H](C)N(c2nc(=O)n(-c3c(C)ncnc3C(C)C)c3nc(-c4ccccc4F)c(Cl)cc23)C[C@H]1C (single isomer, unassigned) [Example 194-1]	0.033	> 7.5	0.067	–	–	–
C=CC(=O)N1C[C@H](C)N(c2nc(=O)n(-c3c(C(C)C)cnnc3C(C)C)c3nc(-c4ccccc4F)c(Cl)cc23)C[C@H]1C (single isomer, unassigned) [Example 205-1]	0.07	> 7.5	0.098	–	–	–
C=CC(=O)N1C[C@H](C)N(c2nc(=O)n(-c3c(C(C)C)cnnc3C(C)C)c3nc(-c4ccccc4F)c(Cl)cc23)C[C@H]1C (single isomer, unassigned) [Example 205-2]	–	–	0.078	–	0.091	> 7.5
C=CC(=O)N1C[C@H](C)N(c2nc(=O)n(-c3c(C)cc([S+](C)[O-])cc3C(C)C)c3nc(-c4ccccc4C)c(Cl)cc23)C[C@H]1C (single isomer, unassigned) [Example 213-2]	0.069	> 7.5	0.072	–	–	–
C=CC(=O)N1C[C@H](C)N(c2nc(=O)n(-c3c(C)cc([S+](C)[O-])cc3C(C)C)c3nc(-c4ccccc4C)c(Cl)cc23)C[C@H]1C (single isomer, unassigned) [Example 213-3]	–	–	0.066	–	0.074	> 7.5
C=CC(=O)N1C[C@H](C)N(c2nc(=O)n(-c3c(C)cc(S(C)(=O)=O)cc3C(C)C)c3nc(-c4ccccc4F)c(Cl)cc23)C[C@H]1C (single isomer, unassigned) [Example 215-2]	0.086	> 7.5	0.055	–	–	–
C=CC(=O)N1C[C@H](C)N(c2nc(=O)n(-c3c(N(C)C)ccnc3C(C)C)c3nc(-c4ccccc4F)c(Cl)cc23)C[C@H]1C [Example 55-51, 6-Chloro-1-[4-(dimethylamino)-2-isopropyl-3-pyridyl]-4-[(2S,5R)-2,5-dimethyl-4-prop-2-enoyl-piperazin-1-yl]-7-(2-fluorophenyl)pyrido[2,3-d]pyrimidin-2-one]	–	> 7.5	–	0.19	0.079	–
C=CC(=O)N1C[C@H](C)N(c2nc(=O)n(-c3c(Cl)ccnc3C(C)C)c3nc(OC)c(-c4ccccc4F)cc23)C[C@H]1C [Example 55-52, 1-(4-Chloro-2-isopropyl-3-pyridyl)-4-[(2S,5R)-2,5-dimethyl-4-prop-2-enoyl-piperazin-1-yl]-6-(2-fluorophenyl)-7-methoxy-pyrido[2,3-d]pyrimidin-2-one]	10	> 7.5	–	10.2	–	–
